The record followed here is patent publication US5538981A, “Tetrahydro-pyrido-indole” (Eli Lilly and Company, priority 1995, dated 1996).

Usually IC50 stands for the point on the concentration scale where inhibition reaches its midpoint.

Counter-ions that a name gives are not always drawn.

The target in assay [1] is T1, 5-HT1c receptor (Bos taurus, UniProt A0AAA9SBU1).
T1 construct: natural pool of RNA-edited forms
T1 sequence (A0AAA9SBU1 33-457): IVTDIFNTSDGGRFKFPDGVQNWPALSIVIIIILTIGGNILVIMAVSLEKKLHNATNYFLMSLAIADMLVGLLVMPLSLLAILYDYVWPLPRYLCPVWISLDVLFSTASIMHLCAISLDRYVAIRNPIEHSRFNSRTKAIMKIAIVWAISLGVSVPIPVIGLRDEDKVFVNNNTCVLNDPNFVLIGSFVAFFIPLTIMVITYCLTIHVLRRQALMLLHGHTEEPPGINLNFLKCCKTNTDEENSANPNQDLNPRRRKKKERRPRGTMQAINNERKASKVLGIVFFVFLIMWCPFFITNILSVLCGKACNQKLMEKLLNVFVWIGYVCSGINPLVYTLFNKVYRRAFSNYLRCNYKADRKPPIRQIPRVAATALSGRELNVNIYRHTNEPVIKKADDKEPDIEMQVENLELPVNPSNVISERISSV
Description: 5-HT1c receptor radioligand binding displacement assay ([3H]mesulergine, choroid plexus). More on the design: species or system beef. Conditions: beef choroid plexus; tritiated mesulergine 2.0 nM; pH 7.4; 37° C., 15 min.
Description: (§1) Beef brain was removed immediately after slaughter, and choroid plexus were dissected over ice. […] The brain of each was immediately removed and the cerebral cortex was dissected over ice. Tissues were homogenized in 9 volumes of 0.32 mol/L sucrose and centrifuged at 1,000×g for 10 minutes. The supernatant was centrifuged at 17,000×g for 20 minutes. The pellet was suspended in 100 volumes of 50 mM Tris-HCL (pH7.4), incubated at 37° C. for 10 minutes and centrifuged at 50,000×g for 10 minutes, and the process was repeated three times. The final pellets were frozen at -70° C. and used within 2 weeks. Pellets were rehydrated with physiological buffer prior to use.
(§2) For 5-HT1c receptor assays increasing concentrations of experimental compound, 50 mM Tris HCl buffer pH[7.4], and tritiated mesulergine (2.0 nM) (^3 H ligand) were combined in polystyrene tubes at room temperature. The reaction was initiated by the addition of the resuspended choroid plexus tissue which had been preincubated at 37° C. for 20 minutes. The reaction mixture was incubated in a 37° C. water bath for 15 minutes.
(§3) The reactions were terminated by rapid filtration, (Brandel Cell Harvestor), through Whatman GF/B glass filters that had been presoaked in Tris buffer pH [7.4]. The filters were then washed 2 times with 5 ml of ice cold Tris buffer pH [7.4]. Washed filters were placed in scintillation vials and 10 ml RedySolv, (Brandel), was added and samples were counted in a Searle D-300 beta counter. Means and standard error statistics were calculated for triplicate experimental determinations in certain cases. Mean values were obtained from three or more separate determinations. The incubation time for the reaction mixture was 15 minutes at 37° C.

In assay [2] the target is T2, 5-HT2 receptor (Rattus norvegicus, UniProt P14842).
T2 construct: The reaction was initiated by the addition of the resuspended rat cerebral cortex tissue; tissue Harlan Industries, Cumberland, Ind; (animals); host or cells: cerebral cortex of male Sprague-Dawley rats, washed membranes
Description: 5-HT2 receptor radioligand binding displacement assay ([3H]ketanserin, cerebral cortex). The arrangement: species or system rat (male Sprague-Dawley). As to conditions: tritiated ketanserin 1 nM, pH 7.4, 37° C., 30 min, values over 100 nM accumulated before concentration range was reduced to 0.1 to 100 nM. The procedure: The assays were conducted by the following procedures.
5-HT1c selective compounds can be identified using the following biological assay procedures. Compounds having a selective affinity for the 5-HT1c receptor have a low IC50 in the 5-HT1c receptor assay and a higher IC50 in the 5-HT2 receptor assay.
I. Biological Reagent Preparation.
Beef brain was removed immediately after slaughter, and choroid plexus were dissected over ice. Male Sprague-Dawley rats weighing 125-150 g (Harlan Industries, Cumberland, Ind.) were killed by decapitation. The brain of each was immediately removed and the cerebral cortex was dissected over ice. Tissues were homogenized in 9 volumes of 0.32 mol/L sucrose and centrifuged at 1,000×g for 10 minutes. The supernatant was centrifuged at 17,000×g for 20 minutes. The pellet was suspended in 100 volumes of 50 mM Tris-HCL (pH7.4), incubated at 37° C. for 10 minutes and centrifuged at 50,000×g for 10 minutes, and the process was repeated three times. The final pellets were frozen at -70° C. and used within 2 weeks. Pellets were rehydrated with physiological buffer prior to use.
Radioligand binding assays for 5-HT1c and 5-HT2 receptors were conducted according to described methods. The assays can be conducted as described by Hoyer D., Functional correlates of serotonin 5-HT1 recognition sites, J. Receptor Res 8, 59-81 (1988) and Hoyer D., Engel G., Kalkman HO Molecular pharmacology of 5-HT1 and 5-HT2 recognition sires in rat and pig brain membranes: Radio-ligand binding studies with [^3 H]5-HT, [^3 H]8-OH-DPAT, (-) [^125 I] iodocyanopindolol, [^3 H]mesulergine and [^3 H]ketanserin, Eur. J. Pharmacol. 118, 13-23 (1985).
For 5-HT2 receptor assays increasing concentrations of experimental compound, 50 mM Tris HCl buffer pH [7.4], and tritiated ketanserin (1 nM) (^3 H ligand) were combined in polystyrene tubes at room temperature. The reaction was initiated by the addition of the resuspended rat cerebral cortex tissue which had been preincubated at 37° C. for 20 minutes. The reaction mixture was incubated in a 37° C. water bath for 30 minutes.
The above assays were modified after a number of compounds had been screened to accomodate the unexpectedly high potency of the compounds of this invention in the 5-HT1c assay. The concentration range of the experimental compound in the assays was changed from [0.1 to 1000 (nM)] to [0.1 to 100 (nM)] to optimize the use of reagents and analysis time.
The reactions were terminated by rapid filtration, (Brandel Cell Harvestor), through Whatman GF/B glass filters that had been presoaked in Tris buffer pH [7.4]. The filters were then washed 2 times with 5 ml of ice cold Tris buffer pH [7.4]. Washed filters were placed in scintillation vials and 10 ml RedySolv, (Brandel), was added and samples were counted in a Searle D-300 beta counter. Means and standard error statistics were calculated for triplicate experimental determinations in certain cases. Mean values were obtained from three or more separate determinations. The incubation time for the reaction mixture was […] at 37° C.
The results of the evaluation of certain compounds of the present invention in the 5-HT1c and 5-HT2 binding assays are set forth below in Table II.

The subject of assay [3] is 5-HT1c receptor. As to the kind of experiment: 5-HT1c receptor radioligand binding displacement assay ([3H]mesulergine, choroid plexus). More on the design: species or system beef. Conditions: 5-HT1c versus 5-HT2, from Table II.
Description: as §1, §2, §3

T2 sequence (P14842 whole entry): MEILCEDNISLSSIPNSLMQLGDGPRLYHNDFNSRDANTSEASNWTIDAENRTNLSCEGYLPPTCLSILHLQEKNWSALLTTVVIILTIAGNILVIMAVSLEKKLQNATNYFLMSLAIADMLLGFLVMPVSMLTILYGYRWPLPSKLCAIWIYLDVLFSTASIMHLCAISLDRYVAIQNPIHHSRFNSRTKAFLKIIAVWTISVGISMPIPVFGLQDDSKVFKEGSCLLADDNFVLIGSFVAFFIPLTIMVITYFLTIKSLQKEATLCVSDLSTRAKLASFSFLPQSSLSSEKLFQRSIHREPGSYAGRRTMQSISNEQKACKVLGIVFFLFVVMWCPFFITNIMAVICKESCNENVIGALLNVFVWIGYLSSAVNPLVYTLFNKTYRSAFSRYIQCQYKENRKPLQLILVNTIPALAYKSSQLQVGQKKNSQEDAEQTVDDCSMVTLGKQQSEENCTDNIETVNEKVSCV

As for `COc1ccc(CC2NCCc3c2[nH]c2ccc(C)cc32)c2ccccc12` (racemic) [Example 1, (±) 6-methyl-1-(1-(4-methoxynaphthalenyl)methyl)-1,2,3,4-tetrahydro-9H-pyrido[3,4-b]indole hydrochloride], the IC50 in assay [1] worked out at 6.4 nM; in assay [2], 56.1 nM.

On to `Cc1ccc2[nH]c3c(c2c1)CCNC3C(C)c1cccc2ccccc12` (racemic) [Example 3, (±) 6-methyl-1-(1-naphthalenyl-1-ethyl)-1,2,3,4-tetrahydro-9H-pyrido[3,4-b]indole], for which the values for the IC50 in assay [1] and in assay [2] were 6 nM and greater than 100 nM, respectively.

Regarding `CC(C)c1ccc2[nH]c3c(c2c1)CCNC3C(C)c1cccc2ccccc12` (racemic) [Example 4, hydrochloride], the IC50 in assay [1] is 14 nM; in assay [2] it was greater than 100 nM.

In the case of `Cc1ccc2[nH]c3c(c2c1)CCNC3Cc1cccc2ccccc12` (racemic) [Example 5, (±) 6-methyl-1-(1-naphthalenylmethyl)-1,2,3,4-tetrahydro-9H-pyrido[3,4-b]indole hydrochloride], the results for the IC50 in assay [1] and in assay [2] were 30 nM and 267 nM, respectively.

For `Brc1cccc2c3c([nH]c12)C(Cc1cccc2ccccc12)NCC3` (racemic) [Example 6, (±) 8-bromo-1-(1-naphthalenylmethyl)-1,2,3,4-tetrahydro-9H-pyrido[3,4-b]indolehydrochloride], the IC50 in assay [1] stood at 13.2 nM; in assay [2] it was 40 nM.

In the case of `Cc1cc(Br)c2[nH]c3c(c2c1)CCNC3Cc1cccc2ccccc12` (racemic) [Example 7, (±) 6-methyl-8-bromo-1-(1-naphthalenylmethyl)-1,2,3,4-tetrahydro-9H-pyrido[3,4-b]indole], the IC50 in assay [1] amounted to 60 nM; in assay [2], 247 nM.

`COc1cccc2c3c([nH]c12)C(Cc1cccc2ccccc12)NCC3` (racemic) [Example 8, (±) 8-methoxy-1-(1-naphthalenylmethyl)-1,2,3,4-tetrahydro-9H-pyrido[3,4-b]indole]: the IC50 was 63 nM in assay [1] and 65 nM in assay [2].

Turning to `Brc1ccc2[nH]c3c(c2c1)CCNC3Cc1cccc2ccccc12` (racemic) [Example 9, (±) 6-bromo-1-(1-naphthalenylmethyl)-1,2,3,4-tetrahydro-9H-pyrido[3,4-b]indole], the IC50 amounted to 27 nM in assay [1] and 87 nM in assay [2].

As to `Cc1ccc2c3c([nH]c2c1Br)C(Cc1cccc2ccccc12)NCC3` (racemic) [Example 10, (±) 7-methyl-8-bromo-1-(1-naphthalenylmethyl)-1,2,3,4-tetrahydro-9H-pyrido[3,4-b]indole hydrochloride], the results for the IC50 in assay [1] and in assay [2] were 44 nM and 142 nM, respectively.

Turning to `c1ccc2c(CC3NCCc4c3[nH]c3ccc(C5CCCCC5)cc43)cccc2c1` (racemic) [Example 11, (±) 6-cyclohexyl-1-(1-naphthalenylmethyl)-1,2,3,4-tetrahydro-9H-pyrido[3,4-b]indole hydrochloride], the IC50 was 189 nM in assay [1] and greater than 100 nM in assay [2].

In the case of `Cc1ccc2[nH]c3c(c2c1)CCN(C)C3Cc1cccc2ccccc12` (racemic) [Example 12, (±) 2,6-dimethyl-1-(1-naphthalenylmethyl)-1,2,3,4-tetrahydro-9H-pyrido[3,4-b]indole hydrochloride], the figures for the IC50 in assay [1] and in assay [2] were 54 nM and greater than 100 nM, respectively.

`Cc1ccc2[nH]c3c(c2c1F)CCNC3Cc1cccc2ccccc12` (racemic) [Example 13, (±) 5-fluoro-6-methyl-1-(1-naphthalenylmethyl)-1,2,3,4-tetrahydro-9H-pyrido[3,4-b]indole]: the results for the IC50 in assay [1] and in assay [2] were 16 nM and greater than 100 nM, respectively.

Turning to `c1ccc2c(CC3NCCc4c3[nH]c3c4ccc4ccccc43)cccc2c1` (racemic) [Example 14, (±) 7,8,9,10-tetrahydro-10-(1-naphthalenylmethyl)-11H-benzo[g]pyrido[3,4-b]indole], the IC50 is 61 nM in assay [1] and greater than 100 nM in assay [2].

For the compound `CC(C)(C)c1ccc2[nH]c3c(c2c1)CCNC3Cc1cccc2ccccc12` (racemic) [Example 15, (±) 6-(1,1-dimethylethyl)-1,2,3,4-tetrahydro-1-(1-naphthalenylmethyl)-9H-pyrido[3,4b]indole], the IC50 is 11 nM in assay [1] and greater than 100 nM in assay [2]. Moreover, in assay [3], the “5-HT1c selectivity (low IC50 in 5-HT1c assay, higher IC50 in 5-HT2 assay)” value was “particularly 5-HT1c selective”.

With `CC(C)c1ccc2[nH]c3c(c2c1)CCNC3Cc1cccc2ccccc12` (racemic) [Example 16, (±) 6-(1-methylethyl)-1,2,3,4-tetrahydro-1-(1-naphthalenylmethyl)-9H-pyrido[3,4b]indole], the IC50 was 9 nM in assay [1] and greater than 100 nM in assay [2]. The “5-HT1c selectivity (low IC50 in 5-HT1c assay, higher IC50 in 5-HT2 assay)” value in assay [3] is reported as “particularly 5-HT1c selective”.

For `Cc1ccc2c(c1)c1c(n2C)C(Cc2cccc3ccccc23)NCC1` (racemic) [Example 17, (±) 6,9-dimethyl-1,2,3,4-tetrahydro-1-(1-naphthalenylmethyl)-9H-pyrido[3,4-b]indole hydrochloride], the IC50 in assay [1] was 23 nM; in assay [2], greater than 100 nM.

As to `Cc1ccc2[nH]c3c(c2c1)CCN[C@H]3Cc1cccc2ccccc12` [Example 18, (-)-(S)-6-methyl-1,2,3,4-tetrahydro-1-(1-naphthalenylmethyl)-9H-pyrido[3,4-b]indole hydrochloride], the IC50 in assay [1] is less than 100 nM; in assay [2], 108 nM.
